From patent publication US5525600A, “(Thiophen-2-yl)-piperidin or tetrahydropyridin carboxamides” (American Home Products Corporation, priority 1994, dated 1996)
Where a name gives a salt, the structure may show the parent alone. Read-outs that look alike come from different tables or passages of the source.

Biological target: T1, 5-HT1A serotonin receptor (Rattus norvegicus, UniProt P19327)
T1 sequence (P19327 1-422): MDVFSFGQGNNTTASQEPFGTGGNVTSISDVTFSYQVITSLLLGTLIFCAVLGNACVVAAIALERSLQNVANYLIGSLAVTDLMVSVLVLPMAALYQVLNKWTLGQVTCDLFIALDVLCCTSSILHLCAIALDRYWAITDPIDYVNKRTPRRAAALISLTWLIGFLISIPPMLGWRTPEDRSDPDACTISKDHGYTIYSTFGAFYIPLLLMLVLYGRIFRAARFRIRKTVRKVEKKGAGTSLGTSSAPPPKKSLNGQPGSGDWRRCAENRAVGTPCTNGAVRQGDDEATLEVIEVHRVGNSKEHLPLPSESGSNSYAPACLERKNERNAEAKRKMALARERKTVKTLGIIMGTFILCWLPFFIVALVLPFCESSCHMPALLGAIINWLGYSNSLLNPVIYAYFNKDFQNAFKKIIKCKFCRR
Experiment: biochemical
Assay type: binding

[1] = displacement of [^3 H]8-OHDPAT, read-out: 5-HT1A Binding (IC50)

IC50 [1] | SMILES | IC50 | other results
980 pM | COc1ccsc1C1CCN(CCC(C(=O)N2CCCCCC2)c2ccccc2)CC1 (stereo not drawn) [Example 3, 1-Azepan-1-yl-4-[4-(3-methoxy-thiophen-2-yl)-piperidin-1-yl]-2-phenyl-butan-1-one fumarate salt] | – | –
– | COc1ccsc1C1(O)CCN(CCC(C(=O)N2CCCCCC2)c2ccccc2)CC1 (stereo not drawn) [Example 1, 1-Azepan-1-yl-4-[4-hydroxy-4-(3-methoxy-thiophen-2-yl)-piperidin-1-yl]-2-phenyl-butan-1-one 0.75 hydroiodide] | 800 pM | –
700 pM | COc1ccsc1C1CCN(CC[C@H](C(=O)N2CCCCCC2)c2ccccc2)CC1 [Example 5, (2S)-1-(Azepan-1-yl)-4-[4-(3-methoxy-thiophen-2-yl)-piperidin-1-yl]-2-phenyl-butan-1-one dihydrochloride salt] | – | –
– | COc1ccsc1C1=CCN(CCC(C(=O)N2CCCCCC2)c2ccccc2)CC1 (stereo not drawn) [Example 2, 1-Azepan-1-yl-4-[4-(3-methoxy-thiophen-2-yl)-1,2,3,6-tetrahydro-pyridin-1-yl]-2-phenyl-butan-1-one] | 250 pM | –
– | O=C1CC2(CCCC2)CC(=O)N1CCCCN1CCN(c2ncccn2)CC1 [buspirone, reference compound] | – | affinity for the serotonin 5-HT1A receptor (in words) (displacement of [^3 H]8-OHDPAT): potent affinity
– | COc1ccsc1C1=CCN(CC[C@H](C(=O)N2CCCCCC2)c2ccccc2)CC1 [Example 4, (S)-1-Azepan-1-yl-4-[4-(3-methoxy-thiophen-2-yl)-1.2.3.6-tetrahydro-pyridin-1-yl]-2-phenyl-butan-1-one hydrochloride salt] | 200 pM | –
